Where two headings read alike, the source gives them in different places.
What was measured:
[1] = tested on: Candida Albicans (ATCC 10231); assay: Antimicrobial activity test by tube dilution method, fungi; type: cell-based; details: for killing at 50000 µg/mL: Candida albicans, ATCC10231, 0.05 h, read-out: C. albicans % killing
Procedure: (§1) The antimicrobial activity of the compounds was determined by tube dilution method. Powdery compounds were taken in closed glass vials and were tested against Staphylococcus aureus (ATCC 6538) (bacteria) and Candida Albicans (ATCC 10231) (Fungi). 50 mg of the sample was taken in 1 ml of DMSO and the contact time for the sample was maintained as 3 minutes. The medium for microorganisms was Soyabean Casein Digest Agar for bacteria and Sabouraud's Dextrose Agar for fungi. The incubation time for bacteria was 2 days at 30-35° C. while for fungi was 3-5 days at 20-25° C.

[2] = tested on: Staphylococcus aureus (ATCC 6538); assay: Antimicrobial activity test by tube dilution method, bacteria; type: cell-based; details: for killing at 50000 µg/mL: Staphylococcus aureus, ATCC6538, 0.05 h, read-out: S. aureus % killing
Procedure: as §1

[3] = 50 mg sample in 1 ml DMSO, contact time 3 minutes, Sabouraud's Dextrose Agar, 3-5 days at 20-25° C.
[4] = 50 mg sample in 1 ml DMSO, contact time 3 minutes, Soyabean Casein Digest Agar, 2 days at 30-35° C.

SMILES | C. albicans Final Count [1, 3] | killing at 50000 µg/mL [1] [%] | S. aureus Final Count [2, 4] | killing at 50000 µg/mL [2] [%] | killing at 50000 µg/mL [1, 3] [%] | killing at 50000 µg/mL [2, 4] [%] | C. albicans % killing [1, 3] [%] | S. aureus % killing [2, 4] [%]
O=C(N/N=C/c1ccc([N+](=O)[O-])o1)C12CC3CC(C1)CC(C(=O)N/N=C/c1ccc([N+](=O)[O-])o1)(C3)C2 [Compound 5g] | 0 | 100 | 10 | 100 | – | – | – | –
COc1cc(/C=N\NC(=O)C23CC4CC(C2)CC(C(=O)N/N=C/c2ccc(O)c(OC)c2)(C4)C3)ccc1O [Compound 5b, Bis [N′-(3-methoxy, 4-hydroxy)benzylidene]adamantane-1,3-dicarbohydrazide] | 0 | – | 1680000 | – | 100 | 90.3 | – | –
COc1cc(/C=N\NC(=O)C23CC4CC(C2)CC(C(=O)N/N=C/c2cc(OC)c(O)c([N+](=O)[O-])c2)(C4)C3)cc([N+](=O)[O-])c1O [Compound 5h, Bis [N′-(3-nitro, 4-hydroxy, 5-methoxy)benzylidene]adamantane-1,3-dicarbohydrazide] | 0 | 100 | 0 | 100 | – | – | – | –
CC(=NNC(=O)C12CC3CC(C1)CC(C(=O)NN=C(C)c1ccc(Cl)c([N+](=O)[O-])c1)(C3)C2)c1ccc(Cl)c([N+](=O)[O-])c1 [Compound 5r, Bis[N′-(1-(3-nitro,4-chloro)ethylidene)]adamantane-1,3-dicarbohydrazide] | 0 | – | 5100000 | – | – | – | 100.00 | 74.24
Cc1ccc(/C=N/NC(=O)C23CC4CC(C2)CC(C(=O)N/N=C/c2ccc(C)cc2)(C4)C3)cc1 [Compound 5i, Bis[N′-(4-methyl)benzylidene]adamantane-1,3-dicarbohydrazide] | 0 | – | 3120000 | – | 100 | 85 | – | –
CCOc1ccc(/C(C)=N\NC(=O)C23CC4CC(C2)CC(C(=O)N/N=C(\C)c2ccc(OCC)cc2)(C4)C3)cc1 [Compound 5e, Bis [N′-(1-(4-ethoxy)ethylidene)]adamantane-1,3-dicarbohydrazide] | 0 | – | 16400000 | – | 100 | 16.8 | – | –
CCOc1ccc(/C=N/NC(=O)C23CC4CC(C2)CC(C(=O)N/N=C/c2ccc(OCC)cc2)(C4)C3)cc1 [Compound 5n, Bis[N′-(4-ethoxy)benzylidene]adamantane-1,3-dicarbohydrazide] | 0 | – | 10 | – | 100 | 100 | – | –
COc1ccc(/C=N/NC(=O)C23CC4CC(C2)CC(C(=O)N/N=C/c2ccc(OC)cc2)(C4)C3)cc1 [Compound 5q, Bis[N′-(4-methoxy)benzylidene]adamantane-1,3-dicarbohydrazide] | 0 | – | 14400000 | – | 100 | 26.1 | – | –
O=C(N/N=C/c1ccc(O)cc1)C12CC3CC(C1)CC(C(=O)N/N=C/c1ccc(O)cc1)(C3)C2 [Compound 5j, Bis[N′-(4-hydroxy)benzylidene]adamantane-1,3-dicarbohydrazide] | 0 | – | 550000 | – | 100 | 97.2 | – | –
O=C(NN=Cc1ccc(Cl)c([N+](=O)[O-])c1)C12CC3CC(C1)CC(C(=O)NN=Cc1ccc(Cl)c([N+](=O)[O-])c1)(C3)C2 [Compound 5o, Bis[N′-(3-nitro,4-chloro)benzylidene]adamantane-1,3-dicarbohydrazide] | 0 | – | 18400000 | – | – | – | 100.00 | 9.36
O=C(N/N=C\c1ccc2ccccc2c1)C12CC3CC(C1)CC(C(=O)N/N=C/c1ccc4ccccc4c1)(C3)C2 [Compound 5f] | 0 | – | 16000000 | – | 100 | 20.4 | – | –
O=C(N/N=C/c1ccc(Br)cc1)C12CC3CC(C1)CC(C(=O)N/N=C/c1ccc(Br)cc1)(C3)C2 [Compound 5p, Bis[N′-(4-bromo)benzylidene]adamantane-1,3-dicarbohydrazide] | 0 | – | 2310000 | – | 100 | 88.7 | – | –
C/C(=N/NC(=O)C12CC3CC(C1)CC(C(=O)N/N=C(\C)c1cc(C)ccc1O)(C3)C2)c1cc(C)ccc1O [Compound 5c, Bis [N′-(1-(2-hydroxy, 5-methyl phenyl)ethylidene)]adamantane-1,3-dicarbohydrazide] | 10 | – | 2980000 | – | 100 | 82.9 | – | –
COc1cc(/C=N/NC(=O)C23CC4CC(C2)CC(C(=O)N/N=C/c2cc(Br)c(O)c(OC)c2)(C4)C3)cc(Br)c1O [Compound 5l, Bis[N′-(3-bromo,4hydroxy,5-methoxy)benzylidene]adamantane-1,3-dicarbohydrazide] | 0 | – | 0 | – | 100 | 100 | – | –
O=C(N/N=C\c1cccs1)C12CC3CC(C1)CC(C(=O)N/N=C/c1cccs1)(C3)C2 [Compound 5m] | 0 | – | 1230000 | – | 100 | 93.4 | – | –
O=C(N/N=C\c1ccc([N+](=O)[O-])cc1)C12CC3CC(C1)CC(C(=O)N/N=C/c1ccc([N+](=O)[O-])cc1)(C3)C2 [Compound 5a, Bis [N′-(4-nitro)benzylidene]adamantane-1,3-dicarbohydrazide] | 0 | 100 | 0 | 100 | – | – | – | –
C/C(=N\NC(=O)C12CC3CC(C1)CC(C(=O)N/N=C(\C)c1ccc(O)cc1)(C3)C2)c1ccc(O)cc1 [Compound 5k, Bis[N′-(1-(4-hydroxyphenyl)ethylidene)]adamantane-1,3-dicarbohydrazide] | 0 | – | 7500000 | – | 100 | 60.3 | – | –
COc1ccc(/C=N\NC(=O)C23CC4CC(C2)CC(C(=O)N/N=C/c2ccc(OC)c(OC)c2)(C4)C3)cc1OC [Compound 5d] | 0 | – | 10300000 | – | 100 | 50.2 | – | –
